Structures can show the parent of a compound that is named as a salt.
Test system: Human fungiform taste bud cells
Assay: Assay for Taste Receptors (calcium fluorescence, FLIPR)
Format: cell-based
Settings: without polyquaternium-2
[1] = FIG. 5B, 0.5 mM 1,10-phenanthroline, 0.5 mM saccharin, 3% propylene glycol

SMILES | bitterness of the component itself [1] | bitterness of the component itself (FIG. 5C, 2 mM)
c1cnc2c(c1)ccc1cccnc12 [1,10-phenanthroline] | very bitter | –
N=C(NCCCCCCNC(=N)NC(=N)Nc1ccc(Cl)cc1)NC(=N)Nc1ccc(Cl)cc1 [chlorhesidice] | – | only slightly bitter
Cc1ccccc1C(OCCN(C)C)c1ccccc1 (stereo not drawn) [orphenadrine hydrochloride] | – | most bitter component
O=C1NS(=O)(=O)c2ccccc21 [saccharin] | very bitter | –
O=C1CCCCCN1 [ε-Caprolactam] | – | only slightly bitter
CNC(N)=S [N-methylthiourea] | – | only slightly bitter
CCN(CC)CCNC(=O)c1ccc(N)cc1 [procainamide hydrochloride] | – | only slightly bitter
N#C[C@H](O[C@@H]1O[C@H](CO[C@@H]2O[C@H](CO)[C@@H](O)[C@H](O)[C@H]2O)[C@@H](O)[C@H](O)[C@H]1O)c1ccccc1 [amygdalin] | – | only slightly bitter
CC(O)CO (stereo not drawn) [propylene glycol] | very bitter | –
